Patent publication US8710001B2, “PEGylated, extended insulins” (Novo Nordisk A/S, priority 2006, dated 2014)

Biological target: human insulin receptor, A-isoform (without exon 11) (Homo sapiens, UniProt P06213)
Assay: Insulin receptor binding, SPA (Scintillation Proximity Assay) microtiterplate antibody capture assay
Settings: affinity relative to human insulin; purified recombinant human insulin receptor; A14Tyr[125I]-human insulin tracer; 16 hours incubation
Description: The affinity of the insulin derivatives of this invention for the human insulin receptor is determined by a SPA assay (Scintillation Proximity Assay) microtiterplate antibody capture assay. SPA-PVT antibody-binding beads, anti-mouse reagent (Amersham Biosciences, Cat No. PRNQ0017) are mixed with 25 ml of binding buffer (100 mM HEPES pH 7.8; 100 mM sodium chloride, 10 mM MgSO4, 0.025% Tween-20). Reagent mix for a single Packard Optiplate (Packard No. 6005190) is composed of 2.4 μl of a 1:5000 diluted purified recombinant human insulin receptor (either with or without exon 11), an amount of a stock solution of A14Tyr[^125I]-human insulin corresponding to 5000 cpm per 100 μl of reagent mix, 12 μl of a 1:1000 dilution of F12 antibody, 3 ml of SPA-beads and binding buffer to a total of 12 ml. A total of 100 μl reagent mix is then added to each well in the Packard Optiplate and a dilution series of the insulin derivative is made in the Optiplate from appropriate samples. The samples are then incubated for 16 hours while gently shaken. The phases are the then separated by centrifugation for 1 min and the plates counted in a Topcounter. The binding data were fitted using the nonlinear regression algorithm in the GraphPad Prism 2.01 (GraphPad Software, San Diego, Calif.).

human insulin receptor, A-isoform (without exon 11), sequence (P06213 28-746 isoform P06213-2 limits assumed): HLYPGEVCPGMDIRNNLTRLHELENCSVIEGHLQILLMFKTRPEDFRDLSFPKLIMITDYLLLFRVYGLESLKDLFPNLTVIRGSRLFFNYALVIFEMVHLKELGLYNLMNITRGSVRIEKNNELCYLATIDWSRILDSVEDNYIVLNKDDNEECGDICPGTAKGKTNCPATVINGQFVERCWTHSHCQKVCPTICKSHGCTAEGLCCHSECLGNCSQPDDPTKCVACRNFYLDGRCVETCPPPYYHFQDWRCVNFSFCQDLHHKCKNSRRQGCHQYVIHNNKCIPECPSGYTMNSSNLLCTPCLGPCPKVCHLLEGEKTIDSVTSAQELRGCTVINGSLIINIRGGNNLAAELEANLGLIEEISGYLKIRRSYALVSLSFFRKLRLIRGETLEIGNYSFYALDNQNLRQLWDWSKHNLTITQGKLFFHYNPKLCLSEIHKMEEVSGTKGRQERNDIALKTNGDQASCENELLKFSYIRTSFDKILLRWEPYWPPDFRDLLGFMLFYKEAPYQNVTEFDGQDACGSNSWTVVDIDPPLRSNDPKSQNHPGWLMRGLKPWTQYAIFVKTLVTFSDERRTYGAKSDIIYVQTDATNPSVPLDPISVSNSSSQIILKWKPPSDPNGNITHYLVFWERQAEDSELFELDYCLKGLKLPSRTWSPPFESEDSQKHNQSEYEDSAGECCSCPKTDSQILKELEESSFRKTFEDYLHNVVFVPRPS
human insulin receptor, A-isoform (without exon 11), sequence (P06213 763-1382 partner limits assumed): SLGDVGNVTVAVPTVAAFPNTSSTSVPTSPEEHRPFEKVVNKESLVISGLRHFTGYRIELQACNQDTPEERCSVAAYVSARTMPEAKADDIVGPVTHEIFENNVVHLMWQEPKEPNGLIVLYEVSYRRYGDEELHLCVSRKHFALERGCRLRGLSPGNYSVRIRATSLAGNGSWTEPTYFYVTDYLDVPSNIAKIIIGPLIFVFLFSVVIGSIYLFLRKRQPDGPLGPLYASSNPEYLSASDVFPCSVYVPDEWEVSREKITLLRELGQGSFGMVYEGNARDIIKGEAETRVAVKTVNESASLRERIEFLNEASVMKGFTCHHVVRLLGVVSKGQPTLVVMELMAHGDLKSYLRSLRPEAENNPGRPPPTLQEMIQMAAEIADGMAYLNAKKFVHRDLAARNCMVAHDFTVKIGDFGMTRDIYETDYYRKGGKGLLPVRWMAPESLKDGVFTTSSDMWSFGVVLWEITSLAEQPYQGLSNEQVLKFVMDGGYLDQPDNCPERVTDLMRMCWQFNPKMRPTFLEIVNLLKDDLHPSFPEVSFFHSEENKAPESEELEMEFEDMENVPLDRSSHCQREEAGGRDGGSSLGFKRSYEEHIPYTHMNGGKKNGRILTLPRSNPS

| Substance | Insulin receptor binding, A-isoform (without exon 11) Relative to human insulin [%] |
| --- | --- |
| A22G, A23G, A24G, A25K(N^εmPEG750-Propionyl), B29R, desB30 Human Insulin [Example 7] | 44 |
| A22K(N^ε(mdPEG12)3-dPEG4-yl-dPEG12-yl), B29R, desB30 Human Insulin [Example 19] | 106 |
| A22K(N^εmPEG2000-Propionyl), B29R, desB30 Human Insulin [Example 2] | 90 |
| A22K(N^ε(mdPEG12)3-dPEG4-yl), B29R, desB30 Human Insulin [Example 6] | 120 |
| A14E, A22K(N^+mPEG2000-Propionyl), B25H, B29R, desB30 Human Insulin [Example 16] | 15 |
| A22K(N^ε-mPEG2000-Propionyl), B29R, desB30 Human Insulin [Example 1] | 90 |
| A22G, A23K(N^εmPEG2000-Propionyl), B29R, desB30 Human Insulin [Example 8] | 58 |
| A14E, A22K(N^ε(mdPEG12)3-dPEG4-yl-dPEG12-yl), B25H, B29R, desB30 Human Insulin [Example 18] | 16 |
| A14E, A22K(N^ε(mdPEG12)3-dPEG4-yl), B25H, B29R, desB30 Human Insulin [Example 17] | 19 |
| B29Q, B31K(N^ε(mPEG2000-Propionyl)) Human Insulin [Example 22] | 14 |
